What was measured:
[1] = test system: carrageenin induced paw edema; experiment: Antiinflammatory effect on carrageenin induced paw edema (Experiments 3, 8); type: in vivo, Wistar male rats; conditions: inhibition rate in oral administration = 1.00
Procedure: The antiinflammatory effect of the test compositions in Experiment 1 was determined by an effect on carrageenin induced paw edema. The experiment was performed using 8 Wistar male rats weighing approximately 170 g per one group. After previously measuring the volume of left hind paw, 50 mg each of the test compositions (stored at room temperature for one month after the preparation) was applied twice, left hind paw of the rat, 2 hours and 1 hour before injection of an inflammatory agent. As the inflammatory agent, 0.1 ml of a 1% carrageenin solution was subcutaneously injected at the left hind paw. The volume of the left hind paw was measured 3 hours after and a swelling was determined based on the volume before injecting the inflammatory agent. A group in which no test composition was applied was made a control group and the inhibition rate was calculated based thereon as follows. [formula]
The antiinfammatory effect was examined with the test compositions of Experiment 7, in a manner similar to Experiment 3.

[2] = test system: carrageenin induced paw edema; conditions: 5 mg/kg, Folia Pharmacologica Japonica vol. 70, page 543 (1974); cited from earlier work

## CC(C(=O)O)c1cccc(C(=O)c2ccccc2)c1 (centres unmarked) [Ketoprofen]
[1]
  Potency Ratio (Table 3): 1.00
[2]
  Inhibition Rate, Oral Administration (Table 3): 45.9%
